Source: patent US12508300B2, “Acylated GLP-1 derivative” (Sciwind Biosciences Co., Ltd., priority 2019, dated 2025)

Biological target: T1, trypsin (Bos taurus, UniProt P00760)
T1 construct: purchased Sigma T8003
T1 sequence (P00760 24-246): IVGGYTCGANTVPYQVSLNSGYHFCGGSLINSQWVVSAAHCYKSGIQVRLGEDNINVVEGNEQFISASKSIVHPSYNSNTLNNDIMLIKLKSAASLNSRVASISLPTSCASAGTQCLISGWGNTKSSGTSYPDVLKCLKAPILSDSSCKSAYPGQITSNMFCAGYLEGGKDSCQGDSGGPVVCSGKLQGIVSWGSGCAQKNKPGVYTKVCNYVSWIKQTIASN
Test: Trypsin degradation experiments
Assay type: in vitro ADME
Experimental: Pepsin (3200-4500 U/mg protein, from Sigma, catalog number: P6887), trypsin (approximately […] protein, from Sigma, catalog number: T8003).
B: Reaction buffer of trypsin: three 20 mM citric acid-phosphate buffers with different pH (4.0, 6.8, and 8.0) are prepared, then adding 0.005% Tween 20 and 0.001% BSA to prepare a reaction buffer of trypsin.
D: Simulated intestinal fluid containing trypsin (SIF): obtained by taking 0.0684 g of potassium dihydrogen phosphate, adding 2.5 ml of water to dissolve it, adding 0.77 ml of 0.2M sodium hydroxide solution and 5 ml of water, and then adding and dissolving 0.1001 g of trypsin; the pH is measured as 6.82, then diluting by adding water to 10 ml.
An appropriate amount of the stock solution of the test sample is taken respectively, then diluting it to 0.06 mg/ml with reaction buffers of trypsin with different pH; each group of reaction solution is divided into 1 ml/tube, a total of 7 tubes, then mixing well and incubating in a 37° C. water bath for 30 min. […]
HPLC assay is performed with samples from the enzyme degradation experiment. The peak area of the main peak of the sample without enzyme reaction at 0 point (recorded as −5 min) is used as the basal peak area, and the remaining percentage of the peak area of the main peak at different time points after enzyme addition is calculated.

CC[C@H](C)[C@H](NC(=O)[C@H](Cc1ccccc1)NC(=O)[C@H](CCC(=O)O)NC(=O)[C@H](CCCCNC(=O)COCCOCCNC(=O)COCCOCCNC(=O)CC[C@H](NC(=O)CCCCCCCCCCCCCCCCC(=O)O)C(=O)O)NC(=O)[C@H](C)NC(=O)[C@H](C)NC(=O)[C@H](CCC(N)=O)NC(=O)CNC(=O)[C@H](CCC(=O)O)NC(=O)[C@H](CC(C)C)NC(=O)[C@H](Cc1ccc(O)cc1)NC(=O)[C@H](CO)NC(=O)[C@H](CO)NC(=O)[C@@H](NC(=O)[C@H](CC(=O)O)NC(=O)[C@H](CO)NC(=O)[C@@H](NC(=O)[C@H](Cc1ccccc1)NC(=O)[C@@H](NC(=O)CNC(=O)[C@H](CCC(=O)O)NC(=O)C(C)(C)NC(=O)[C@@H](N)Cc1cnc[nH]1)[C@@H](C)O)[C@@H](C)O)C(C)C)C(=O)N[C@@H](C)C(=O)N[C@@H](Cc1c[nH]c2ccccc12)C(=O)N[C@@H](CC(C)C)C(=O)N[C@H](C(=O)N[C@@H](CCCNC(=N)N)C(=O)NCC(=O)N[C@@H](CCCNC(=N)N)C(=O)NCC(=O)O)C(C)C [Semaglutide, N-ε^26-[2-(2-[2-(2-[2-(2[4-(17-carboxyheptadecanoylamino)-4(s)-carboxybutyrylamino]ethoxy)ethoxy]acetylamino)ethoxy]ethoxy)acetyl][Aib^8, Arg^34]GLP-1-(7-37) peptide]
ability against trypsin degradation (in words) (pH4.0): show the ability against trypsin degradation | degradation rate by trypsin (in words) (pH6.8 and 8.0, n=4, FIG. 6): basically the same
